Source: patent publication US20240016781A1, “TREATMENT OF KRAS MUTANT CANCERS” (MEI Pharma, Inc., priority 2020, published 2024)
Like-named read-outs stand apart in the source and are kept apart here.

What was measured:
Assay in all cases: 72-hour CellTiter-Glo 2.0 growth inhibition screen (single agent, 9x9 combination dose matrix);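 as to Best CI Level: inhibition effect level at which the best CI was calculated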
Format in all cases: cell-based
HPAF-II = system: HPAF-II;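 as to Best CI Level: inhibition effect level at which the best CI was calculated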
AsPC-1 = settings: for EC50: ASPC1, 72 h
LS-513 = settings: for EC50: LS-513, 72 h
SW48 KRAS (G12D/+) = settings: for EC50: SW48, 72 h, read-out: EC50
[1] = HPAF-II (KRAS G12D), enhancer + MEI-522 (Voruciclib), 72 h;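 as to Best CI Level: inhibition effect level at which the best CI was calculated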
[2] = enhancer combined with MEI-522 (Voruciclib), HPAF-II (Pancreas), 72 hours, inhibition data
[3] = AsPC-1 (KRAS G12D), enhancer + MEI-522 (Voruciclib), 72 h;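 as to Best CI Level: inhibition effect level at which the best CI was calculated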
[4] = enhancer combined with MEI-522 (Voruciclib), AsPC-1 (Pancreas), 72 hours, inhibition data
[5] = Homo sapiens, LS-513, Colorectal, Additional Single Agent Responses (inhibition, % I), 72 h
[6] = Homo sapiens, LS-513, Colorectal, growth inhibition (GI) curve, single agent, 72 h
[7] = LS-513 (KRAS G12D), enhancer + MEI-522 (Voruciclib), 72 h;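 as to Best CI Level: inhibition effect level at which the best CI was calculated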
[8] = enhancer combined with MEI-522 (Voruciclib), LS-513 (Colorectal), 72 hours, inhibition data
[9] = Homo sapiens, SW48 KRAS (G12D/+), Colorectal, Additional Single Agent Responses (inhibition, % I), 72 h
[10] = Homo sapiens, SW48 KRAS (G12D/+), Colorectal, growth inhibition (GI) curve, single agent, 72 h
[11] = SW48 KRAS (G12D/+), enhancer + MEI-522 (Voruciclib), 72 h
[12] = enhancer combined with MEI-522 (Voruciclib), SW48 KRAS (G12D/+) (Colorectal), 72 hours, inhibition data

In the case of CC[C@@H]1C(=O)N(C)c2cnc(Nc3ccc(C(=O)N[C@H]4CC[C@H](N5CCN(CC6CC6)CC5)CC4)cc3OC)nc2N1C(C)C [Volasertib], the “Best CI” value (HPAF-II; [1]) is reported as 0.66, the “Bliss Volume” value (HPAF-II; [1]) is reported as −0.85 and the HSA volume (HPAF-II; [1]) is reported as 0.04. For the same compound, the “Loewe Volume” value (HPAF-II; [1]) was −0.80, the “Synergy Score” value (HPAF-II; [1]) was 2.64 and the “Response Area” value (HPAF-II; HPAF-II, Pancreas, Additional Single Agent Responses (inhibition, % I), 72 h) was 3.45. For the same compound, the “Response Area” value (HPAF-II; HPAF-II, Pancreas, growth inhibition (GI), AUC, single agent, 72 h) was 4.65, the EC50 (HPAF-II; Homo sapiens, HPAF-II, 72 h, Pancreas, Additional Single Agent Responses (inhibition, % I)) was 3.9 nM and the EC50 (HPAF-II; Homo sapiens, HPAF-II, 72 h, Pancreas, growth inhibition (GI) curve, single agent) was 3.9 nM. The IC50 (HPAF-II; Homo sapiens, HPAF-II, Pancreas, Additional Single Agent Responses (inhibition, % I), 72 h) was 6.2 nM, the Emax (HPAF-II; Homo sapiens, HPAF-II, Pancreas, Additional Single Agent Responses, 72 h, read-out: Max Response (% I)) was 71% and the GI50 (HPAF-II; Homo sapiens, HPAF-II, Pancreas, growth inhibition (GI) curve, single agent, 72 h) was 4.4 nM. The Emax (HPAF-II; Homo sapiens, HPAF-II, Pancreas, growth inhibition (GI), single agent, 72 h, read-out: Max Response (% GI)) was 95%, the “Best CI” value (HPAF-II; [2]) was 0.52 and the “Bliss Volume” value (HPAF-II; [2]) was −2.61. For the same compound, the HSA volume (HPAF-II; [2]) was −0.36, the “Loewe Volume” value (HPAF-II; [2]) was −0.96 and the “Synergy Score” value (HPAF-II; [2]) was 0.98. For the same compound, the Best CI Level (HPAF-II; enhancer combined with MEI-522 (Voruciclib), HPAF-II (Pancreas), 72 hours, inhibition data, unit assumed) was 70%, the “Best CI” value (AsPC-1; [3]) was 0.51 and the “Bliss Volume” value (AsPC-1; [3]) was −1.02. The HSA volume (AsPC-1; [3]) was 0.04, the “Loewe Volume” value (AsPC-1; [3]) was −0.85 and the “Synergy Score” value (AsPC-1; [3]) was 1.87. The “Response Area” value (AsPC-1; AsPC-1, Pancreas, Additional Single Agent Responses (inhibition, % I), 72 h) was 3.11, the “Response Area” value (AsPC-1; AsPC-1, Pancreas, growth inhibition (GI), AUC, single agent, 72 h) was 4.36 and the EC50 (AsPC-1; Homo sapiens, AsPC-1, Pancreas, Additional Single Agent Responses (inhibition, % I), 72 h) was 12.2 nM. For the same compound, the EC50 (AsPC-1; Homo sapiens, AsPC-1, Pancreas, growth inhibition (GI) curve, single agent, 72 h) was 12.2 nM, the IC50 (AsPC-1; Homo sapiens, ASPC1, AsPC-1, Pancreas, Additional Single Agent Responses (inhibition, % I), 72 h) was 23.1 nM and the Emax (AsPC-1; Homo sapiens, ASPC1, AsPC-1, Pancreas, Additional Single Agent Responses, 72 h, read-out: Max Response (% I)) was 69%. For the same compound, the GI50 (AsPC-1; Homo sapiens, ASPC1, AsPC-1, Pancreas, growth inhibition (GI) curve, single agent, 72 h) was 13.7 nM, the Emax (AsPC-1; Homo sapiens, ASPC1, AsPC-1, Pancreas, growth inhibition (GI), single agent, 72 h, read-out: Max Response (% GI)) was 96% and the “Best CI” value (AsPC-1; [4]) was 0.89. For the same compound, the “Best CI Level” value (AsPC-1; [4]) was 20, the “Bliss Volume” value (AsPC-1; [4]) was −2.24 and the HSA volume (AsPC-1; [4]) was −0.18. For the same compound, the “Loewe Volume” value (AsPC-1; [4]) was −0.80, the “Synergy Score” value (AsPC-1; [4]) was 0.83 and the EC50 (LS-513; [5]) was 18.6 nM. The EC50 (LS-513; [6]) was 18.5 nM, the IC50 (LS-513; [5]) was 23.9 nM and the Emax (LS-513; Homo sapiens, LS-513, Colorectal, Additional Single Agent Responses, 72 h, read-out: Max Response (% I)) was 74%. For the same compound, the GI50 (LS-513; [6]) was 20 nM, the Emax (LS-513; Homo sapiens, LS-513, Colorectal, growth inhibition (GI), single agent, 72 h, read-out: Max Response (% GI)) was 91% and the “Best CI” value (LS-513; [7]) was 0.60. The “Bliss Volume” value (LS-513; [7]) was 3.16, the HSA volume (LS-513; [7]) was 1.53 and the “Loewe Volume” value (LS-513; [7]) was 1.21. The “Synergy Score” value (LS-513; [7]) was 5.33, the “Response Area” value (LS-513; LS-513, Colorectal, Additional Single Agent Responses (inhibition, % I), 72 h) was 3.44 and the “Response Area” value (LS-513; LS-513, Colorectal, growth inhibition (GI), AUC, single agent, 72 h) was 4.22. For the same compound, the “Best CI” value (LS-513; [8]) was 0.62, the “Best CI Level” value (LS-513; [8]) was 80 and the “Bliss Volume” value (LS-513; [8]) was −1.28. For the same compound, the HSA volume (LS-513; [8]) was 0.04, the “Loewe Volume” value (LS-513; [8]) was 0.06 and the “Synergy Score” value (LS-513; [8]) was 1.44. The EC50 (SW48 KRAS (G12D/+); [9]) was 4.1 nM, the EC50 (SW48 KRAS (G12D/+); [10]) was 4.2 nM and the IC50 (SW48 KRAS (G12D/+); [9]) was 4.8 nM. It also gave an Emax (SW48 KRAS (G12D/+); Homo sapiens, SW48 KRAS (G12D/+), Colorectal, Additional Single Agent Responses, 72 h, read-out: Max Response (% I)) of 86%, a GI50 (SW48 KRAS (G12D/+); [10]) of 4.3 nM and an Emax (SW48 KRAS (G12D/+); Homo sapiens, SW48 KRAS (G12D/+), Colorectal, growth inhibition (GI), single agent, 72 h, read-out: Max Response (% GI)) of 148%. For the same compound, the “Response Area” value (SW48 KRAS (G12D/+); SW48 KRAS (G12D/+), Colorectal, Additional Single Agent Responses (inhibition, % I), 72 h) was 3.32, the “Response Area” value (SW48 KRAS (G12D/+); SW48 KRAS (G12D/+), Colorectal, growth inhibition (GI), AUC, single agent, 72 h) was 5.01 and the “Best CI” value (SW48 KRAS (G12D/+); [11]) was 0.06. The “Bliss Volume” value (SW48 KRAS (G12D/+); [11]) was 8.36, the HSA volume (SW48 KRAS (G12D/+); [11]) was 1.07 and the “Loewe Volume” value (SW48 KRAS (G12D/+); [11]) was 3.66. For the same compound, the “Synergy Score” value (SW48 KRAS (G12D/+); [11]) was 13.34, the “Best CI” value (SW48 KRAS (G12D/+); [12]) was 0.08 and the “Bliss Volume” value (SW48 KRAS (G12D/+); [12]) was 0.41. The HSA volume (SW48 KRAS (G12D/+); [12]) was 0.61, the “Loewe Volume” value (SW48 KRAS (G12D/+); [12]) was 2.08 and the “Synergy Score” value (SW48 KRAS (G12D/+); [12]) was 4.06. It also gave a Best CI Level (SW48 KRAS (G12D/+); enhancer combined with MEI-522 (Voruciclib), SW48 KRAS (G12D/+) (Colorectal), 72 hours, inhibition data, unit assumed) of 80%.
